The target of assay [1] is T1, Upstate Src (p60^c-src, partially purified) (Homo sapiens, UniProt P12931).
T1 construct: purchased UBI, Upstate Biotech, Inc
Briefly: SRC-Inhibitor-Assay (time-resolved fluorescence), Src. Particulars: ATP 5 μM, peptide 10 μM, enzyme 2.5 U/mL, 15 min pre-incubation at 15° C. It counts as biochemical. From the text: (§1) The activity of the compounds according to this invention as inhibitors for the src-family tyrosine kinases was shown by using the following assay.
(§2) SRC-Inhibitor-Assay Parameters:
(§3) Eu-labelled phosphotyrosine antibody:—for Lck Cisbio Mab PT66-K, • for Src EG&G Wallac PT66 Eu-W1024 (all commercially available).
(§4) Peptides: Ro: NH2-A-E-E-E-I-Y-G-E-F-E-A-K-K-K-K-CONH2, and • Ja133-Ro: Ja133-G-Aminocaprylic acid-A-E-E-E-I-Y-G-E-F-E-A-K-K-K-K-CONH2, wherein Ja133 is LightCycler-Red 640-N-hydroxy succinimide ester; • whereby both peptides were synthesized by an optimized solid phase peptide synthesis protocol (Merrifield, Fed. Proc. Fed. Amer. Soc. Exp. Biol. 21 (1962) 412) on a Zinsser SMP350 peptide synthesizer. Shortly, the peptide was assembled on 160 mg (22.8 μmol scale) of a Rink-Linker modified polystyrene solid phase by repeatedly conjugating an twenty fold excess of amino acids each protected by temporary piperidine labile Fmoc- and permanent acid labile tert-Bu-, BOC- and O-tert-Bu-groups depending on the side chain function. The substrate sequence AEEEIYGEFEAKKKK was N-terminal additionally mounted with the spacer amino acids Aminocaprylic acid and Glycin. After cleavage of the N-terminal temporary protecting group the still attached and protected peptide was labeled with a 1.5 fold amount of LightCycler-Red 640-N-hydroxy succinimide ester (purchased from Roche Diagnostics GmbH) and triethylamine. After 3 hrs. the resin was washed with Dimethylformamide and Isopropanol until the eluates of the blue resin got colourless. […] The substrate was finally isolated by a preparative reverse phase HPLC purification. The purification yielded 12.2 mg RP-HPLC single peak pure blue material (lyophilisate). The identity was proven by MALDI mass spectroscopy [2720.0].
(§5) Enzymes: Upstate Lck (p56^lck, active), Upstate Src (p60^c-src, partially purified) were purchased from UBI, Upstate Biotech, Inc.
(§6) Time-resolved Fluorescence Assay: Reader: Perkin Elmer, Wallac Viktor 1420-040 multilabel counter; Liquid handling system: Beckman Coulter, Biomek 2000.
(§7) ATP, Tween™ 20, 4-(2-hydroxyethyl)-l-piperazineethanesulfonic acid (HEPES) were purchased from Roche Molecular Biochemicals, MgCl2 and MnCl2 were purchased from Merck Eurolab, Tris(2-carboxyethyl)phosphine hydrochloride (TCEP) was purchased from Pierce, 384 Well low volume fluorescence plates was purchased from Falcon.
(§8) At first the enzyme is pre-incubated for 15 min. at 15° C. in aqueous solution with corresponding amounts of inhibitors according to this invention. Then the phosphorylation reaction is started by adding a reaction mixture, containing ATP, Peptide and PT66, and subsequent shaking. The proceeding of this reaction is immediately monitored using time resolved fluorescence spectroscopy in a suitable well plate reader.
(§9) The IC50-values can be obtained from the reaction rates by using a non-linear curve fit (XLfit software (ID Business Solution Ltd., Guilford, Surrey, UK))

Assay [2] has as its target T2, Upstate Lck (p56^lck, active) (Homo sapiens, UniProt P06239).
T2 construct: purchased UBI, Upstate Biotech, Inc
The assay can be described thus: SRC-Inhibitor-Assay (time-resolved fluorescence), Lck. The conditions noted are these: ATP 5 μM, peptide 10 μM, enzyme 2.5 U/mL, 15 min pre-incubation at 15° C. In kind it is biochemical.
Excerpt: as §1, §2, §3, §4, §5, §6, §7, §8, §9

Structures are written as SMILES.

As usually defined, the IC50 is the concentration that inhibits the measured activity by half. A higher IC50 goes with a need for much substance.

T1 sequence (P12931 whole entry): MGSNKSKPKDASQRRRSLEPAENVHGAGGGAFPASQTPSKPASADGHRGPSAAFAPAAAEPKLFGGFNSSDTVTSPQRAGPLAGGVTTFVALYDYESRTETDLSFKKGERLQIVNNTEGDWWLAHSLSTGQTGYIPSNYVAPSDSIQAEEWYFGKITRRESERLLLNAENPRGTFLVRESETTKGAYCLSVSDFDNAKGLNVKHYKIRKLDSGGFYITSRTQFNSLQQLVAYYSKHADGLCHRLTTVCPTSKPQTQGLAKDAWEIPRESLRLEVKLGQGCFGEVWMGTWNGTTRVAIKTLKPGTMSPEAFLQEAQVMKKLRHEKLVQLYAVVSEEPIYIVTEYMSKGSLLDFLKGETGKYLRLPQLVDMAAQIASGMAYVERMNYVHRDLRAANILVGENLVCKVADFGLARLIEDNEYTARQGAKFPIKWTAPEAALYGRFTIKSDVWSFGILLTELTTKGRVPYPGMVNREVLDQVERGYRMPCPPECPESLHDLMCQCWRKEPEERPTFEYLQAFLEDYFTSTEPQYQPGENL
T2 sequence (P06239 whole entry): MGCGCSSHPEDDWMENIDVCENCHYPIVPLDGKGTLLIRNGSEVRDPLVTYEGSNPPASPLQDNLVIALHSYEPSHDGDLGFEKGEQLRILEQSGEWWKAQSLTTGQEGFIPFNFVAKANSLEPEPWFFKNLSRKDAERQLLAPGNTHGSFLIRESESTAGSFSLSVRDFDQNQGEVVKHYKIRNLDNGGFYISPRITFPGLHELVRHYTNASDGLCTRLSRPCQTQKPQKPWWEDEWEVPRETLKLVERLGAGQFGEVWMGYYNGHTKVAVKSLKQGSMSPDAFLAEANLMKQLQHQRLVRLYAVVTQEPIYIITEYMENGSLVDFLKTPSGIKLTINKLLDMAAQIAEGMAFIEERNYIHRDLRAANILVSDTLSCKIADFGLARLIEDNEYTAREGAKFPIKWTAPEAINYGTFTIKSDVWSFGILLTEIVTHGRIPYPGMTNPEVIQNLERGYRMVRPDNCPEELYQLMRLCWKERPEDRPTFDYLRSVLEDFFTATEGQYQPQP

`CC(Nc1cnc2[nH]c(-c3ccccc3)nc2c1)c1ccccc1` (stereo not drawn) [Example 1-1, (1-Phenyl-ethyl)-(2-phenyl-3H-imidazo[4,5-b]pyridin-6-yl)-amine]: the IC50 is 500 to 1500 nM in assay [1] and 1000 to 5000 nM in assay [2].
In the case of `COCCOc1cccc(-c2cc3cc(NCc4ccccc4)cnc3[nH]2)c1` [Example 2-1, Benzyl-{2-[3-(2-methoxy-ethoxy)-phenyl]-1H-pyrrolo[2,3-b]pyridin-5-yl}-amine], the IC50 in assay [1] lay within 500 to 1500 nM; in assay [2], 100 to 1000 nM.
The matching figures for `COCCOc1cccc(-c2cc3cc(NCc4ccccc4C)cnc3[nH]2)c1` [Example 2-2, {2-[3-(2-Methoxy-ethoxy)-phenyl]-1H-pyrrolo[2,3-b]pyridin-5-yl}-(2-methyl-benzyl)-amine]: 131 nM and 757 nM.
With `c1ccc(CNc2cnc3[nH]c(-c4ccccc4)cc3c2)cc1` [Example 2-3, Benzyl-(2-phenyl-1H-pyrrolo[2,3-b]pyridin-5-yl)-amine], the results for the 50% inhibitory concentration (IC50) in assay [1] and in assay [2] were 10 to 500 nM and 1000 to 5000 nM, respectively.
For the compound `Cc1ccccc1CNc1cnc2[nH]c(-c3ccccc3)cc2c1` [Example 2-4, (2-Methyl-benzyl)-(2-phenyl-1H-pyrrolo[2,3-b]pyridin-5-yl)-amine], the IC50 lay in the range of 10 to 500 nM in assay [1] and 100 to 1000 nM in assay [2].
On to `CC(=O)Nc1cccc(-c2cc3cc(NCc4ccccc4)cnc3[nH]2)c1` [Example 2-5, N-[3-(5-Benzylamino-1H-pyrrolo[2,3-b]pyridin-2-yl)-phenyl]-acetamide], for which the figures for the IC50 in assay [1] and in assay [2] were 10 to 500 nM and 100 to 1000 nM, respectively.
`CC(=O)Nc1cccc(-c2cc3cc(NCc4ccccc4C)cnc3[nH]2)c1` [Example 2-6, N-{3-[5-(2-Methyl-benzylamino)-1H-pyrrolo[2,3-b]pyridin-2-yl]-phenyl}-acetamide]: the IC50 in assay [1] was determined as 31 nM; in assay [2], 223 nM.
In the case of `CC(=O)Nc1ccc(-c2cc3cc(NCc4ccccc4)cnc3[nH]2)cc1` [Example 2-7, N-[4-(5-Benzylamino-1H-pyrrolo[2,3-b]pyridin-2-yl)-phenyl]-acetamide], the IC50 in assay [1] was in the range of 10 to 500 nM; in assay [2] it was 100 to 1000 nM.
As for `CC(=O)Nc1ccc(-c2cc3cc(NCc4ccccc4C)cnc3[nH]2)cc1` [Example 2-8, N-{4-[5-(2-Methyl-benzylamino)-1H-pyrrolo[2,3-b]pyridin-2-yl]-phenyl}-acetamide], the IC50 in assay [1] lay within 10 to 500 nM; in assay [2] it was 100 to 1000 nM.
